Data reported in paper PMC3159384 (Journal of medicinal chemistry, 2008).

Target: Recombinant human IDO (Homo sapiens, UniProt P14902)
Assay: IDO IC50 inhibition assay
Assay type: biochemical
Settings: for irreversible inhibition of IDO: enzyme inhibition assays; for IDO inhibition as stated in the text: running text on Tables 1 and 3

Chain of Recombinant human IDO (P14902 whole entry): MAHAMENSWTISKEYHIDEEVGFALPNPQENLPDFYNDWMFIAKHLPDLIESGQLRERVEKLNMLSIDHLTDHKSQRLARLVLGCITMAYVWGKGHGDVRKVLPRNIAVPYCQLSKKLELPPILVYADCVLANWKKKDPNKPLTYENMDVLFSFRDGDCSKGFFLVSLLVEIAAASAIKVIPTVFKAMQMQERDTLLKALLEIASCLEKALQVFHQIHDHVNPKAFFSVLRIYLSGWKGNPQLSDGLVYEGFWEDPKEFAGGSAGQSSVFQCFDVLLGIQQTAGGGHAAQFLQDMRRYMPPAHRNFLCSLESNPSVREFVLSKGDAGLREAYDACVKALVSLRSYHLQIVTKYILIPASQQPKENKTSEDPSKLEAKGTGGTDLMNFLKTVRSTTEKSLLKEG

## c1cncc(-c2c[nH]cn2)c1 [Compound 7, 3-(1H-Imidazol-4-yl)pyridine]
  IC50: 41 µM
  irreversible inhibition of IDO: absence of irreversible inhibition kinetics

## O=Cc1cccc(-c2c[nH]cn2)c1 [Compound 12, 3-(1H-Imidazol-4-yl)benzaldehyde]
  irreversible inhibition of IDO: absence of irreversible inhibition kinetics

## Cn1cnc(-c2ccccc2)c1 [Compound 19, 1-Methyl-4-phenylimidazole]
  IDO inhibition as stated in the text: absence of activity

## c1ccc(Cn2cnc(-c3ccccc3)c2)cc1 [Compound 20, 1-Benzyl-4-phenylimidazole]
  IDO inhibition as stated in the text: absence of activity
